Legend:
[1] = target: T1, hTLR8 (Homo sapiens, UniProt Q9NR97); experiment: SEAP reporter assay for hTLR-8 activity (HEK-Blue hTLR8 cells); format: cell-based
T1 construct: host or cells: HEK293 (HEK-Blue hTLR8)
T1 sequence (Q9NR97 27-1041): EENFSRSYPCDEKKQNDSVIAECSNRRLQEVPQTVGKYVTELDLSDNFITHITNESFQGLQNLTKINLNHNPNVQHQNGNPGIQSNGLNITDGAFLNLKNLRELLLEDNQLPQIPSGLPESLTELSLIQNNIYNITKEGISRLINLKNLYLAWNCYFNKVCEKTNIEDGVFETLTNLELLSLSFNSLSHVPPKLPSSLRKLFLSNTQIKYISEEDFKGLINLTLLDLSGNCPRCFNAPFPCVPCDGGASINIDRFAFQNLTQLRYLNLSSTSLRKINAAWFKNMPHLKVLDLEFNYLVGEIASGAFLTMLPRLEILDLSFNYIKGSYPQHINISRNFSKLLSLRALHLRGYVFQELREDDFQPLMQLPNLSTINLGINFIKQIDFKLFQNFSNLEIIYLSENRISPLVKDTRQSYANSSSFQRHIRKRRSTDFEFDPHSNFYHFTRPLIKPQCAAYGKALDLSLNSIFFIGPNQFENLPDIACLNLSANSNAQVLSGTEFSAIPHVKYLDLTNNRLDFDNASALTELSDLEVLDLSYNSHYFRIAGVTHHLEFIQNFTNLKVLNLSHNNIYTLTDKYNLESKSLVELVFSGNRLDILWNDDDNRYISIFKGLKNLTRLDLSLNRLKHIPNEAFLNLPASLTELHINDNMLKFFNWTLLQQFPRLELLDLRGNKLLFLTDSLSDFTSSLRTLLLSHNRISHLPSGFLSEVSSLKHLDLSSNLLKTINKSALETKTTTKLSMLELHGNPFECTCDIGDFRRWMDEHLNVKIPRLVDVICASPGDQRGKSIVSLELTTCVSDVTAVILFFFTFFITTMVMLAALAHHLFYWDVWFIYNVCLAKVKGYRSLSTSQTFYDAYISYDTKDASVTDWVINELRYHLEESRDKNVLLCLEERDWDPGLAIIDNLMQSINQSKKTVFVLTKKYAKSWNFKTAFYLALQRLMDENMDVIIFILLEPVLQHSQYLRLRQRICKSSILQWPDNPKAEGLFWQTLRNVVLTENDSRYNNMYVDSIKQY
Procedure: (§1) TLR activation induces NF-κB production and subsequent SEAP secretion, which is measured using HEK-Detection media (InvivoGen) containing a colorimetric substrate for SEAP (UV-Vis, 637 nm).
(§2) The experiments followed manufacturer protocol as follows: SEAP levels were measured via absorbance at 637 nm using HEK-Blue Detection cell culture medium (InvivoGen), which contains a SEAP-specific colorimetric substrate. Compound stock solutions were first diluted in sterile DMSO at a concentration of 10 mM. Lower concentrations were prepared by serial dilution of the initial 10 mM stock samples into sterile DMSO and these solutions (22 μL) were subsequently diluted into sterile H2O (198 μL) using a BioTek Precision XS pipetting system. HEK-Blue hTLR7, HEK-Blue hTLR8, Null 1−k, and Null 1 cell suspensions in sterile HEK-Blue Detection medium were prepared at a density of 220,000 cells per mL. Clear bottom, 96-well tissue culture treated plates (Corning) were seeded with hTLR7 and Null 1−k or hTLR8 and Null 1 cell suspensions (180 μL/well), after which 20 μL of the various sample concentrations in 10% v/v DMSO/H2O were added (20 μL) in quadruplicate wells to yield the desired testing concentration in 1% v/v DMSO cell suspension. Plates were incubated at 37° C. and 5% CO2 in the dark. Absorbance measurements were taken at 637 nm at 12 hours, 4 replicates per concentration point, per cell line (hTLR7, hTLR8, Null 1−k, Null 1). Three independent measurements on different days were performed for each analog.
(§3) Corresponding well absorbance values for each concentration tested were averaged with respect to days tested, and the average relative NF-κB induction (UV-Vis, 637 nm) of the null cell lines (Null 1-k or Null 1) were subtracted from the respective average TLR expressing cell line (hTLR7 or hTLR8) absorbance averages. […] The three independent, normalized averages for each analog were then pooled, and the data was fit using the Hill-Slope model (GraphPad Prism v7.0) using the non-linear fit from the [Agonist] vs. response—Variable Slope (four parameters) with a hill slope constrained to less than 3.

[2] = target: T2, hTLR7 (Homo sapiens, UniProt Q9NYK1); experiment: SEAP reporter assay for hTLR-7 activity (HEK-Blue hTLR7 cells); format: cell-based
T2 construct: host or cells: HEK293 (HEK-Blue hTLR7)
T2 sequence (Q9NYK1 27-1049): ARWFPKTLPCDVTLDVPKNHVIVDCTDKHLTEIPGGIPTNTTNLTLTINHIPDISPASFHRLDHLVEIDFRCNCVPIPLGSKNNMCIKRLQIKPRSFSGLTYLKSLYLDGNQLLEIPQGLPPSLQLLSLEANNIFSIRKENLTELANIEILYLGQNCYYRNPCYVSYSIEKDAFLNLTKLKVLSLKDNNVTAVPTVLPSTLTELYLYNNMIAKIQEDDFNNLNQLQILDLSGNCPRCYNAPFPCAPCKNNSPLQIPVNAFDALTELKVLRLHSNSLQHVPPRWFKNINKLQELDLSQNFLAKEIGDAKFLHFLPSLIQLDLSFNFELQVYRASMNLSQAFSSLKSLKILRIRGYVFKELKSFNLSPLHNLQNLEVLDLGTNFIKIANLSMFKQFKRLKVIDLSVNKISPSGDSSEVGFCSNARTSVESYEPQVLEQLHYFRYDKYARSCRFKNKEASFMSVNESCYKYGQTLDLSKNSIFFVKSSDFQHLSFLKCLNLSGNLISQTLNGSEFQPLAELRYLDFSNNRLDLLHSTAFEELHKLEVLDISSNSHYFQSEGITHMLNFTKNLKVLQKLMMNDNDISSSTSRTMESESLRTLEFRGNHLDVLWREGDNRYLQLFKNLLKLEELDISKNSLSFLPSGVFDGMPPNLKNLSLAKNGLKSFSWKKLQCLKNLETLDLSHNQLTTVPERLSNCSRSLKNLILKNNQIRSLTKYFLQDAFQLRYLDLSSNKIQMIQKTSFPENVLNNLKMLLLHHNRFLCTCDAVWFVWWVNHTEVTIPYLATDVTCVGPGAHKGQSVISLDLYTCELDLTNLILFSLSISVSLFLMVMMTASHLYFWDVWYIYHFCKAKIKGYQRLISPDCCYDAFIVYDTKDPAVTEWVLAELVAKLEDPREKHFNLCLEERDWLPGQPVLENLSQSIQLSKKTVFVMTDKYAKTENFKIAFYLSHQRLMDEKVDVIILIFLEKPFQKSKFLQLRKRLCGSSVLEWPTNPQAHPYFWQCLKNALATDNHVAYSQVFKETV
Procedure: as §1, §2, §3

SMILES: CCOCc1nc2c(N)nc3ccccc3c2n1CC(C)(C)O [Compound 2, resiquimod, reference compound]
- agonist for TLR8 receptor (in words) [1]: agonists
- agonist for TLR7 receptor (in words) [2]: agonists

From patent US12295970B2, “Imidazoquinoline compounds and prodrugs thereof” (UNIVERSITY OF KANSAS, priority 2019, dated 2025)
